The source of these data is ChEMBL document CHEMBL3046285, “Design and synthesis of new 1,2-diaryl-4,5,6,7-tetrahydro-1H-benzo[d] imidazoles as selective cyclooxygenase (COX-2) inhibitors” (Med Chem Res, 2012).

This assay addresses T1, Prostaglandin G/H synthase 1 (Ovis aries, UniProt P05979).
T1 sequence (P05979 whole entry): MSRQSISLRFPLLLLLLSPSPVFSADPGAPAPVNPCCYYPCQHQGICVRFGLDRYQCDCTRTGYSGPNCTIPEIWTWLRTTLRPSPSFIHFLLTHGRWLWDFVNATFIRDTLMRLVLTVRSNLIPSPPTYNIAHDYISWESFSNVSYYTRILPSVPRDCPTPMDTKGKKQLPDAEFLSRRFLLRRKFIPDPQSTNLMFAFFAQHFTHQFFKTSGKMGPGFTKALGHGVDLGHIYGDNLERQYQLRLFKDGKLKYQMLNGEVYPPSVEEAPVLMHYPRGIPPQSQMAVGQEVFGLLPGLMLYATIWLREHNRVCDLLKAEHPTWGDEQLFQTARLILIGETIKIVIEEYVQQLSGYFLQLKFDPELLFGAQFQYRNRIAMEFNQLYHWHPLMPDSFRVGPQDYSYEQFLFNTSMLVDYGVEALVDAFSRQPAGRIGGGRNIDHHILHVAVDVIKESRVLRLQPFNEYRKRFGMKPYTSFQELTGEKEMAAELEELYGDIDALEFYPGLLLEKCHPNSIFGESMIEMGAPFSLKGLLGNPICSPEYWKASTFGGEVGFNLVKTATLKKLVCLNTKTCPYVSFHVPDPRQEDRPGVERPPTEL
Nature of the assay: Inhibition of Ovis aries (sheep) COX1 using arachidonic acid as substrate using cyclic naphthalene hydrazide by chemiluminescence assay.

As a reminder, the IC50 is the point on the concentration scale where inhibition reaches its midpoint.

On to `COc1ccc(-n2c(-c3ccc(S(C)(=O)=O)cc3)nc3c2CCCC3)cc1`, for which the IC50 was determined as 42.2 µM.
In the case of `CS(=O)(=O)c1ccc(-c2nc3c(n2-c2ccc(F)cc2)CCCC3)cc1` it was 55.7 µM; in that of `CS(=O)(=O)c1ccc(-c2nc3c(n2-c2ccccc2)CCCC3)cc1`, 56.5 µM.
In turn, `Cc1ccc(-n2c(-c3ccc(S(C)(=O)=O)cc3)nc3c2CCCC3)cc1` returned an IC50 of 40.1 µM. The IC50 values of the last two compounds are within 1.5-fold of each other.
`CC(=O)Nc1ccc(-n2c(-c3ccc(S(C)(=O)=O)cc3)nc3c2CCCC3)cc1` yielded an IC50 of 36.1 µM.
The compound `CS(=O)(=O)c1ccc(-c2nc3c(n2-c2ccc(Cl)cc2)CCCC3)cc1` yielded an IC50 of 61.6 µM.
